In experiment [1] the test system is IκBα. Kind of experiment: TNFα-induced IκBα phosphorylation and degradation, western blot in Jurkat cells. As to conditions: 0.1 μM, 0.1 nM TNF-α 0-90 minutes. The class given is cell-based, human. As to the method: The method for IκBα degradation was designed as in reference, The Journal of Immunology, 1999, 103, 6800-6809, the disclosure of which is also incorporated by reference for the teaching of the assay.
(§1) Human Jurkat T-cells from American Type Culture Collection (ATCC) were cultivated in Rosewell Park Memorial Institute (RPMI) medium supplemented with 10% fetal bovine serum (FBS), penicillin (100 U/mL) and streptomycin (100 μg/mL) at 37° C. in humidified atmosphere of 95% air-5% CO2. Culture medium was changed every 2-3 days and always 24 hours before harvest. RPMI medium, FBS, CellLytic, anti-β-actin, sodium orthovanadate and anisomycin were purchased from Sigma-Aldrich (USA). TNF-α was purchased from R & D Systems (USA). Complete Protease inhibitor cocktail was procured from Roche.
Jurkat cells were preincubated with vehicle or the compound of example 3 (0.1 μM) for 1 hour in a 37° C., CO2 incubator. For MAPK experiments, the cells were stimulated with anisomycin (10 μg/mL) for 30 minutes. SB 203580 was used as a standard (1 μM). For studies pertaining to degradation of IκBα and IκBα (phospho) the cells were stimulated with 0.1 nM TNF-α for 0, 5, 15, 30, 60 and 90 minutes. […] Aliquots of the resulting extracts were analyzed for their protein content using the Coomassie Plus Protein Assay Reagent (Pierce) following manufacturer's instructions. […]

For experiment [2], the target named is T1, p38 MAP kinase (Homo sapiens, UniProt Q16539).
T1 construct: endogenous in cells; host or cells: Jurkat T-cells (ATCC)
Kind of experiment: p38 MAP kinase inhibition, western blot in anisomycin-stimulated Jurkat cells. The class given is cell-based. The settings on record: 0.1 μM, anisomycin 10 μg/mL 30 minutes. As for the experimental part:
The method for identifying inhibitors of p38 mitogen-activated protein (MAP) Kinase was designed as in reference, Journal of Lipid Research, 1999, 40, 1911-1919, the disclosure of which is incorporated herein by reference for the teaching of the assay.
as §1
Jurkat cells were preincubated with vehicle or the compound of example 3 (0.1 μM) for 1 hour in a 37° C., CO2 incubator. For MAPK experiments, the cells were stimulated with anisomycin (10 μg/mL) for 30 minutes. SB 203580 was used as a standard (1 μM). […] Aliquots of the resulting extracts were analyzed for their protein content using the Coomassie Plus Protein Assay Reagent (Pierce) following manufacturer's instructions. […]

For experiment [3], the system named is IL-1β. Kind of experiment: LPS-induced IL-1β release from hPBMCs (ELISA). The class given is cell-based. The settings on record: Homo sapiens. As to the method:
Cytokine production by lipopolysaccharides (LPS) in hPBMCs (human peripheral blood mononuclear cells) was measured as in reference, Physiol. Res. 2003, 52, 593-598, the disclosure of which is incorporated by reference for the teaching of the assay. Blood was collected from healthy donors into Potassium EDTA vacutainer tubes (BID vacutainer). The PBMC were isolated using gradient centrifugation in Histopaque-1077 solution (Sigma). Isolated PBMC were suspended in RPMI 1640 (Rosewell Park Memorial Institute) culture medium (Sigma-Aldrich Fine Chemicals, USA) containing 10% fetal bovine serum (FBS) (JRH, USA), 100 U/mL penicillin (Sigma Chemical Co. St Louis, Mo., USA) and 100 μg/mL streptomycin (Sigma Chemical Co. St Louis, Mo.). The cell concentration was adjusted to 1×10^6 cells/mL. The viability as determined by trypan blue dye exclusion was uniform Ly≧98%. The cell suspension (100 μL) was added to the wells of a 96-well culture plate. Following cell plating, 79 μL of the culture medium and 1 μL of various concentrations of test compounds (compounds of formula 1) (final concentration 0.001, 0.003, 0.005, 0.01, 0.025, 0.03, 0.05, 0.1, 0.25, 0.3 and 1 μM) dissolved in DMSO (dimethyl sulfoxide, Sigma, Mo., USA) were added to the cells. The final concentration of DMSO was adjusted to 0.5%. The vehicle (0.5% DMSO) was used as control. […]

T1 sequence (Q16539 whole entry): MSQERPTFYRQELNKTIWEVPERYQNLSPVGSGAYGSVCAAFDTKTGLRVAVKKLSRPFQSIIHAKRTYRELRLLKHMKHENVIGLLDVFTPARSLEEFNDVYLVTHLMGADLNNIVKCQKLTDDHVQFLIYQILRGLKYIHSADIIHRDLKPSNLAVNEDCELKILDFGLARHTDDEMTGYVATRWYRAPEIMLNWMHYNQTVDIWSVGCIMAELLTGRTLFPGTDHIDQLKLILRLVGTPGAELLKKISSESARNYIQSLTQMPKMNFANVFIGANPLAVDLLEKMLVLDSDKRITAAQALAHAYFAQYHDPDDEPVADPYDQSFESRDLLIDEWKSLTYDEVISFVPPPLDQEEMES

Regarding `CN1CC[C@@H](c2c(O)cc(O)c3c(=O)cc(-c4ccc(C(F)(F)F)cc4Cl)oc23)[C@@H]1CO.Cl` [Compound of example 3, (+)-trans-2-(2-Chloro-4-trifluoromethyl-phenyl)-5,7-dihydroxy-8-(2-hydroxymethyl-1-methyl-pyrrolidin-3-yl)-chromen-4-one hydrochloride], the “TNFα-induced IkBα phosphorylation and degradation (western blot)” value in experiment [1] is “blocks TNFα-induced IkBα phosphorylation and degradation”. The “p38 MAP kinase inhibition (western blot)” value in experiment [2] was “not an inhibitor of p38 MAP kinase”. The same molecule returned an IC50 in experiment [3] of 100 nM.

Values taken from patent US8906953B2, “Pyrrolidine substitute flavones for the treatment of inflammatory disorders” (Piramal Enterprises Limited, priority 2010, dated 2014).
